These results are taken from patent US20250265708A1, “METHOD AND SYSTEM FOR CONTRACTILITY ASSESSMENT OF CARDIAC ORGANOIDS BASED ON PARTICLE IMAGE VELOCIMETRY, PROGRAM FOR THE SAME, AND RECORDING MEDIUM STORING PROGRAM THEREOF” (Research & Business Foundation SUNGKYUNKWAN UNIVERSITY, priority 2024, published 2025).

This experiment relates to cardiac organoid. The experiment in a line: Drug reaction experiment: PIV-based contractility analysis of cardiac organoid treated with isoprenaline. It counts as cell-based, human. From the text: Specifically, isoprenaline, which is a widely used […] (inotropic agent), is used to assess contractility of a cardiac organoid in response to drugs. […] As a result, the contraction-relaxation velocity profile and beating image of the cardiac organoids before drug treatment may be confirmed as shown in FIG. 10A and FIG. 10B, after drug treatment as shown in FIG. 10C and FIG. 10D, and 1 day after drug withdrawal as shown in FIG. 10E and FIG. 10F.

The mark [1] stands for this setting: cardiac organoid, after treating for 15 minutes with isoprenaline, vs before drug treatment.

For the compound `CC(C)NCC(O)c1ccc(O)c(O)c1` (stereo not shown) [isoprenaline], the “heart beating of the organoid” value (1 day after drug withdrawal) is “returned to before the drug treatment”. Moreover, under setting [1], the average contraction duration result is “reduced” and the “contraction time to peak” value is given as “reduced”. The heart beating rate result (cardiac organoid, after treating for 15 minutes with isoprenaline, vs before drug treatment (24.3±3.22 BPM)) is on record as “increased significantly”.
